Data as given in patent publication US9963445B2, “Chemical compounds” (SYNGENTA PARTICIPATIONS AG, priority 2013, dated 2018).

Test system: Echinochloa crus-galli
Assay: Post-emergence herbicidal activity, glasshouse pot test
Assay type: in vivo
Design: key: 0 = no damage to plant, 5 = total damage to plant
Details: Application post-emergence, rate 1000 g/ha, evaluated after 13 days
In short: (§1)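 After 8 days of glasshouse growth at 24/16 °C day/night, potted plants receive a foliar spray of the formulated compound (0.5% Tween 20 in acetone/water). They are then watered twice daily under unchanged conditions, and phytotoxicity is scored 0–5 after 13 days.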

SMILES	ECHCG herbicidal damage score
CC1=C(Cl)C(=O)N(c2cc(C#N)ncn2)C1O (stereo not drawn) [CF13]	1
CC1=C(Cl)C(=O)N(c2cc(C(C)(C)C#N)ncn2)C1O (stereo not drawn) [CF14]	5
CC1=C(Cl)C(=O)N(c2cc(C(C)(F)F)ncn2)C1O (stereo not drawn) [CF15]	5
CCN(C)c1cc(N2C(=O)C(Cl)=C(C)C2O)ncn1 (stereo not drawn) [CF16]	5

Test system: Alopecurus myosuroides
Assay: as above
Assay type: in vivo
Design: key: 0 = no damage to plant, 5 = total damage to plant
Details: Application post-emergence, rate 1000 g/ha, evaluated after 13 days
In short: as §1

SMILES	ALOMY herbicidal damage score
CC1=C(Cl)C(=O)N(c2cc(C#N)ncn2)C1O (stereo not drawn) [CF13]	3
CC1=C(Cl)C(=O)N(c2cc(C(C)(C)C#N)ncn2)C1O (stereo not drawn) [CF14]	5
CC1=C(Cl)C(=O)N(c2cc(C(C)(F)F)ncn2)C1O (stereo not drawn) [CF15]	4
CCN(C)c1cc(N2C(=O)C(Cl)=C(C)C2O)ncn1 (stereo not drawn) [CF16]	4

Test system: zea mays
Assay: as above
Assay type: in vivo
Design: key: 0 = no damage to plant, 5 = total damage to plant
Details: Application post-emergence, rate 1000 g/ha, evaluated after 13 days
In short: as §1

SMILES	ZEAMX herbicidal damage score
CC1=C(Cl)C(=O)N(c2cc(C#N)ncn2)C1O (stereo not drawn) [CF13]	1
CC1=C(Cl)C(=O)N(c2cc(C(C)(C)C#N)ncn2)C1O (stereo not drawn) [CF14]	5
CC1=C(Cl)C(=O)N(c2cc(C(C)(F)F)ncn2)C1O (stereo not drawn) [CF15]	4
CCN(C)c1cc(N2C(=O)C(Cl)=C(C)C2O)ncn1 (stereo not drawn) [CF16]	1

Test system: Setaria faberi
Assay: as above
Assay type: in vivo
Design: key: 0 = no damage to plant, 5 = total damage to plant
Details: Application post-emergence, rate 1000 g/ha, evaluated after 13 days
In short: as §1

SMILES	SETFA herbicidal damage score
CC1=C(Cl)C(=O)N(c2cc(C#N)ncn2)C1O (stereo not drawn) [CF13]	3
CC1=C(Cl)C(=O)N(c2cc(C(C)(C)C#N)ncn2)C1O (stereo not drawn) [CF14]	5
CC1=C(Cl)C(=O)N(c2cc(C(C)(F)F)ncn2)C1O (stereo not drawn) [CF15]	5
CCN(C)c1cc(N2C(=O)C(Cl)=C(C)C2O)ncn1 (stereo not drawn) [CF16]	5

Test system: Abutilon theophrasti
Assay: as above
Assay type: in vivo
Design: key: 0 = no damage to plant, 5 = total damage to plant
Details: Application post-emergence, rate 1000 g/ha, evaluated after 13 days
In short: as §1

SMILES	ABUTH herbicidal damage score
CC1=C(Cl)C(=O)N(c2cc(C#N)ncn2)C1O (stereo not drawn) [CF13]	2
CC1=C(Cl)C(=O)N(c2cc(C(C)(C)C#N)ncn2)C1O (stereo not drawn) [CF14]	5
CC1=C(Cl)C(=O)N(c2cc(C(C)(F)F)ncn2)C1O (stereo not drawn) [CF15]	5
CCN(C)c1cc(N2C(=O)C(Cl)=C(C)C2O)ncn1 (stereo not drawn) [CF16]	3

Test system: Amaranthus retroflexus
Assay: as above
Assay type: in vivo
Design: key: 0 = no damage to plant, 5 = total damage to plant
Details: Application post-emergence, rate 1000 g/ha, evaluated after 13 days
In short: as §1

SMILES	AMARE herbicidal damage score
CC1=C(Cl)C(=O)N(c2cc(C#N)ncn2)C1O (stereo not drawn) [CF13]	2
CC1=C(Cl)C(=O)N(c2cc(C(C)(C)C#N)ncn2)C1O (stereo not drawn) [CF14]	5
CC1=C(Cl)C(=O)N(c2cc(C(C)(F)F)ncn2)C1O (stereo not drawn) [CF15]	5
CCN(C)c1cc(N2C(=O)C(Cl)=C(C)C2O)ncn1 (stereo not drawn) [CF16]	3

Test system: Echinochloa crus-galli
Assay: Pre-emergence herbicidal activity, glasshouse pot test
Assay type: in vivo
Details: pre-emergence spray, rate 1000 g/ha, evaluated after 13 days, scale 0-5
In short: (§2)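 Damage score 0–5 (5 = total damage) read 13 d after spraying. Pots sown, sprayed pre-emergence at day 1 with aqueous spray from acetone/water 50:50 + 0.5% Tween 20 formulation; glasshouse 24/16 °C, 14 h light, 65% RH.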

SMILES	ECHCG damage score, application pre-emergence
CC1=C(Cl)C(=O)N(c2cc(C#N)ncn2)C1O (stereo not drawn) [CF13]	0
CC1=C(Cl)C(=O)N(c2cc(C(C)(C)C#N)ncn2)C1O (stereo not drawn) [CF14]	5
CC1=C(Cl)C(=O)N(c2cc(C(C)(F)F)ncn2)C1O (stereo not drawn) [CF15]	5
CCN(C)c1cc(N2C(=O)C(Cl)=C(C)C2O)ncn1 (stereo not drawn) [CF16]	2

Test system: Alopecurus myosuroides
Assay: as above
Assay type: in vivo
Details: pre-emergence spray, rate 1000 g/ha, evaluated after 13 days, scale 0-5
In short: as §2

SMILES	ALOMY damage score, application pre-emergence
CC1=C(Cl)C(=O)N(c2cc(C#N)ncn2)C1O (stereo not drawn) [CF13]	0
CC1=C(Cl)C(=O)N(c2cc(C(C)(C)C#N)ncn2)C1O (stereo not drawn) [CF14]	3
CC1=C(Cl)C(=O)N(c2cc(C(C)(F)F)ncn2)C1O (stereo not drawn) [CF15]	3
CCN(C)c1cc(N2C(=O)C(Cl)=C(C)C2O)ncn1 (stereo not drawn) [CF16]	1

Test system: zea mays
Assay: as above
Assay type: in vivo
Details: pre-emergence spray, rate 1000 g/ha, evaluated after 13 days, scale 0-5
In short: as §2

SMILES	ZEAMX damage score, application pre-emergence
CC1=C(Cl)C(=O)N(c2cc(C#N)ncn2)C1O (stereo not drawn) [CF13]	1
CC1=C(Cl)C(=O)N(c2cc(C(C)(C)C#N)ncn2)C1O (stereo not drawn) [CF14]	2
CC1=C(Cl)C(=O)N(c2cc(C(C)(F)F)ncn2)C1O (stereo not drawn) [CF15]	2
CCN(C)c1cc(N2C(=O)C(Cl)=C(C)C2O)ncn1 (stereo not drawn) [CF16]	1

Test system: Setaria faberi
Assay: as above
Assay type: in vivo
Details: pre-emergence spray, rate 1000 g/ha, evaluated after 13 days, scale 0-5
In short: as §2

SMILES	SETFA damage score, application pre-emergence
CC1=C(Cl)C(=O)N(c2cc(C#N)ncn2)C1O (stereo not drawn) [CF13]	0
CC1=C(Cl)C(=O)N(c2cc(C(C)(C)C#N)ncn2)C1O (stereo not drawn) [CF14]	5
CC1=C(Cl)C(=O)N(c2cc(C(C)(F)F)ncn2)C1O (stereo not drawn) [CF15]	5
CCN(C)c1cc(N2C(=O)C(Cl)=C(C)C2O)ncn1 (stereo not drawn) [CF16]	4

Test system: Abutilon theophrasti
Assay: as above
Assay type: in vivo
Details: pre-emergence spray, rate 1000 g/ha, evaluated after 13 days, scale 0-5
In short: as §2

SMILES	ABUTH damage score, application pre-emergence
CC1=C(Cl)C(=O)N(c2cc(C#N)ncn2)C1O (stereo not drawn) [CF13]	0
CC1=C(Cl)C(=O)N(c2cc(C(C)(C)C#N)ncn2)C1O (stereo not drawn) [CF14]	5
CC1=C(Cl)C(=O)N(c2cc(C(C)(F)F)ncn2)C1O (stereo not drawn) [CF15]	5
CCN(C)c1cc(N2C(=O)C(Cl)=C(C)C2O)ncn1 (stereo not drawn) [CF16]	2

Test system: Amaranthus retroflexus
Assay: as above
Assay type: in vivo
Details: pre-emergence spray, rate 1000 g/ha, evaluated after 13 days, scale 0-5
In short: as §2

SMILES	AMARE damage score, application pre-emergence
CC1=C(Cl)C(=O)N(c2cc(C#N)ncn2)C1O (stereo not drawn) [CF13]	0
CC1=C(Cl)C(=O)N(c2cc(C(C)(C)C#N)ncn2)C1O (stereo not drawn) [CF14]	5
CC1=C(Cl)C(=O)N(c2cc(C(C)(F)F)ncn2)C1O (stereo not drawn) [CF15]	5
CCN(C)c1cc(N2C(=O)C(Cl)=C(C)C2O)ncn1 (stereo not drawn) [CF16]	2
